Data published in US20160367537A1, “COMPOSITIONS AND METHODS FOR THE TREATMENT AND MANAGEMENT OF STEATOSIS IN HUMAN LIVER” (WAKE FOREST UNIVERSITY HEALTH SCIENCES, priority 2013, published 2016).

Tests used:
[1] = Absorption after oral intake; details: given in the diet
SOAT2 = biological target: T1, SOAT2 (Homo sapiens, UniProt O75908); experiment: Specificity for SOAT2 compared to SOAT1
T1 sequence (O75908 1-522): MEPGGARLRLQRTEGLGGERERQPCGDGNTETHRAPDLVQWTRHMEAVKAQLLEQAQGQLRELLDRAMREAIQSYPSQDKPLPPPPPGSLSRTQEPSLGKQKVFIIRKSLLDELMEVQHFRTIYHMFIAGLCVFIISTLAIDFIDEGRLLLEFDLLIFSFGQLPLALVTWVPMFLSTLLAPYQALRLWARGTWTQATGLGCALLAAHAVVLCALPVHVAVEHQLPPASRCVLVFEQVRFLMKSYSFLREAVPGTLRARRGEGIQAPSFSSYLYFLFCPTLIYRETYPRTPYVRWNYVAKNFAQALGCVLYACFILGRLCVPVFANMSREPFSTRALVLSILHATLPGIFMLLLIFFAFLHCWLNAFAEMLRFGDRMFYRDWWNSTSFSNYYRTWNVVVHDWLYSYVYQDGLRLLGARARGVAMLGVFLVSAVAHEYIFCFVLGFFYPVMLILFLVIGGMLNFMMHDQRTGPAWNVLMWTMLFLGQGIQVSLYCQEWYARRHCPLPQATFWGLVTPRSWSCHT

Stability in the diet = format: physicochemical; details: diet admixture
[2] = tested on: lysosomal acid lipase deficient (LAL−/−) mice; experiment: Mouse model of lysosomal acid lipase deficiency, PRD125 as diet admixture; format: in vivo
Experimental: In the present example, hepatic lipid concentrations and content in a lysosomal acid lipase deficient (LAL^−/−) mouse model were determined in the presence and absence of selective SOAT2 inhibitors. The data are for male lysosomal acid lipase deficient mice on a FVB background. The mice were fed a chow diet for 21 days. During the subsequent 52 or 53 days, 5 mice were fed the chow diet without drug and 3 of 5 to be studied were fed a chow diet supplemented with PRD125 at a dose of 10 mg/kg/day. Animals were ex-sanguinated at 52 days and the blood plasma was collected in EDTA and frozen in liquid nitrogen. The livers, small intestine, and spleen were flushed with saline and rinsed, then also snap frozen in liquid nitrogen. All organs were weighed, and after freezing, approximately 25 mg of tissue was extracted in chloroform methanol, 2:1, for subsequent lipid determinations. Free and total cholesterol was measured enzymatically and esterified cholesterol was determined by difference. Aliquots of the terminal plasma were used for measurement of tissue enzymes.
Mice were studied starting at 21 days of age and studied for 52 to 53 days. Treatment with PRD125 was at 10 mg/kg/day and the compound was given as a diet admixture.

absorption [1]: easily absorbed
specificity to SOAT2 compared to SOAT1 (SOAT2): over 5000 fold
stability in the diet (Stability in the diet): stable
decrease of liver cholesterol content versus untreated mice ([2]; LAL−/− mice, 10 mg/kg/day as diet admixture): 65%
Compound: Cc1ccccc1[C@@H]1OCC2(C)C3C[C@H](OC(=O)c4ccc(C#N)cc4)[C@@]4(C)Oc5cc(-c6cccnc6)oc(=O)c5[C@H](O)C4[C@@]3(C)CC[C@@H]2O1 (some centres unmarked) [PRD125]
serum enzyme levels ([2]; male LAL−/− mice, 10 mg/kg/day as diet admixture, terminal plasma): reduced
liver cholesterol esters ([2]; male LAL−/− mice, FVB background, 10 mg/kg/day as diet admixture, from 21 to 52 or 53 days of age): significantly reduced
oral effectiveness ([2]; oral, does not need booster injections): effective orally
cholesterol content of liver ([2]; treated LAL−/− mice, 10 mg/kg/day as diet admixture (untreated approximately 146 mg/liver)): ~39 mg/liver
